Consider 52 compounds from patent US11247972B2, “Compositions and methods for treating toxoplasmosis, cryptosporidiosis, and other apicomplexan protozoan related diseases” (University of Washington through its Center for …, priority 2010, dated 2022).

One experiment addresses TgCDPK1 (Toxoplasma gondii, UniProt Q9BJF5). In kind it is biochemical.
A further experiment deals with PfCDPK1 (Plasmodium falciparum (isolate 3D7), UniProt P62344). The experiment is described as follows: biochemical. The note with it: read-out: PfCDPK1 (% inhibition @ 3 uM).
For the next experiment, the target named is PfCDPK4 (Plasmodium falciparum (isolate 3D7), UniProt Q8IBS5). The experiment is described as follows: biochemical. The note with it: read-out: PfCDPK4 (% inhibition @ 3 uM).

Chain of TgCDPK1 (Q9BJF5 1-507): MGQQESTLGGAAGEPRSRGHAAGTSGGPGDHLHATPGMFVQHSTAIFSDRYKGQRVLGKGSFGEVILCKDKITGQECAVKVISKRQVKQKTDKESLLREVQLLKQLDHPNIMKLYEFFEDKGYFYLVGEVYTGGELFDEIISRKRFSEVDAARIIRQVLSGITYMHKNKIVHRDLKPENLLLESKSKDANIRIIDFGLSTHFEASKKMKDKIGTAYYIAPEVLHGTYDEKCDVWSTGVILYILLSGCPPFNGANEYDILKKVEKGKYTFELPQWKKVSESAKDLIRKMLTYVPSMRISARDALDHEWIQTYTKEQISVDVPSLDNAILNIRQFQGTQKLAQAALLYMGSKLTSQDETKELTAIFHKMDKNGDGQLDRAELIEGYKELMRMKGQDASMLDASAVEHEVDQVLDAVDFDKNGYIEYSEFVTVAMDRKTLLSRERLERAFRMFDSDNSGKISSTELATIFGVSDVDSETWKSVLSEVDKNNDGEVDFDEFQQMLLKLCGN

With `CC(C)n1nc(-c2ccc(Cl)cc2)c2c(N)ncnc21` [Compound 7a, 3-(4-chlorophenyl)-1-isopropyl-1H-pyrazolo[3,4-d]pyrimidin-4-amine], the “relative potency TgCDPK1 versus CpCDPK1 (in words)” value at TgCDPK1 is “more potent against TgCDPK1 than CpCDPK1”. For the same compound, the inhibition (as a rule, the change of the read-out against control, counted positive when it falls) at 3 µM on PfCDPK1 came out at 97%; at PfCDPK4, 86%.
In the case of `CSc1cccc(-c2nn(C(C)C)c3ncnc(N)c23)c1` [Compound 7ab, 1-isopropyl-3-(3-(methylthio)phenyl)-1H-pyrazolo[3,4-d]pyrimidin-4-amine], the “relative potency TgCDPK1 versus CpCDPK1 (in words)” value on TgCDPK1 is listed as “more potent against TgCDPK1 than CpCDPK1”.
With `CC(C)n1nc(-c2cccc(Cl)c2)c2c(N)ncnc21` [Compound 7b, 3-(3-chlorophenyl)-1-isopropyl-1H-pyrazolo[3,4-d]pyrimidin-4-amine], the “relative potency TgCDPK1 versus CpCDPK1 (in words)” value on TgCDPK1 is recorded as “more potent against TgCDPK1 than CpCDPK1”. Moreover, the inhibition at 3 µM came to 72% at PfCDPK1 and 85% on PfCDPK4.
On the same counts, the results for `CC(C)c1ccc(-c2nn(C(C)C)c3ncnc(N)c23)cc1` [Compound 7d, 1-isopropyl-3-(4-isopropylphenyl)-1H-pyrazolo[3,4-d]pyrimidin-4-amine] are “more potent against TgCDPK1 than CpCDPK1”, 90% and 80%.
On to `COc1cc(-c2nn(C(C)C)c3ncnc(N)c23)cc(OC)c1OC` [Compound 7l, 1-isopropyl-3-(3,4,5-trimethoxyphenyl)-1H-pyrazolo[3,4-d]pyrimidin-4-amine], for which the “relative potency TgCDPK1 versus CpCDPK1 (in words)” value at TgCDPK1 is “equipotent or slightly selective for CpCDPK1”.
As to `Cc1cccc2[nH]c(-c3nc(C(C)(C)C)n4ccnc(N)c34)cc12` [Compound 83], the inhibition at 3 µM was determined as 96% on PfCDPK1 and 93% at PfCDPK4.
On the same counts, the results for `CC(C)(C)c1nc(-c2ccc3ccccc3c2)c2c(N)nccn12` [Compound 84] are 101% and 99%.
On the same counts, the results for `CC(C)n1nc(-c2ccc3cc(OC(=O)c4cccc(Cl)c4)ccc3c2)c2c(N)ncnc21` [Compound 85] are 99% and 72%.
Taken in the same sequence, the figures for `O=C(NCCO)Nc1nc2ccc(C(=O)c3ccccc3)cc2[nH]1` [Compound 90] were 77% and 64%.
On to `O=C(NCCC1CCCNC1)Nc1nc2ccc(C(=O)c3ccccc3)cc2[nH]1` (stereo not drawn) [Compound 91], for which the figures for the inhibition at 3 µM on PfCDPK1 and on PfCDPK4 were 73% and 59%, respectively.
Taken in the same sequence, the figures for `Nc1nc2ccc(C(=O)c3ccccc3)cc2[nH]1` [Compound 92] were 68% and 51%.
Taken in the same sequence, the figures for `CC(C)(C)OC(=O)NCCC(=O)Nc1nc2ccc(C(=O)c3ccccc3)cc2[nH]1` [Compound 93] were 64% and 49%.
Taken in the same sequence, the figures for `NCCC(=O)Nc1nc2ccc(C(=O)c3ccccc3)cc2[nH]1` [Compound 94] were 71% and 51%.
On to `Nc1ncnc2c1c(I)nn2CC1CCNCC1` [Compound 98], for which the inhibition at 3 µM on PfCDPK1 was 85%; at PfCDPK4, 9%.
On the same counts, the results for `Nc1ncnc2c1cnn2CC1CCNCC1` [Compound 99] are 70% and 5%.
On the same counts, the results for `Nc1ncnc2c1c(-c1ccc(-c3ccccc3)cc1)nn2CC1CCNCC1` [Compound 100] are 101% and 68%.
`Nc1ncnc2c1c(-c1ccc(-c3nn(CC4CCNCC4)c4ncnc(N)c34)cc1)nn2CC1CCNCC1` [Compound 101]: the inhibition at 3 µM at PfCDPK1 was 79%; on PfCDPK4 it was 14%.
Taken in the same sequence, the figures for `NCCCC(=O)Nc1nc2ccc(C(=O)c3ccccc3)cc2[nH]1` [Compound 103] were 75% and 58%.
Taken in the same sequence, the figures for `NCCCCCC(=O)Nc1nc2ccc(C(=O)c3ccccc3)cc2[nH]1` [Compound 105] were 71% and 76%.
On the same counts, the results for `O=C(c1ccccc1)c1ccc2nc(NC(=O)[C@@H]3CCCN3)[nH]c2c1` [Compound 107] are 65% and 52%.
For the compound `N[C@@H](Cc1ccc(O)cc1)C(=O)Nc1nc2ccc(C(=O)c3ccccc3)cc2[nH]1` [Compound 109], the inhibition at 3 µM at PfCDPK1 turned out to be 54%; on PfCDPK4 it was 30%.
For the compound `N[C@@H](Cc1c[nH]cn1)C(=O)Nc1nc2ccc(C(=O)c3ccccc3)cc2[nH]1` [Compound 111], the inhibition at 3 µM was 63% on PfCDPK1 and 41% at PfCDPK4.
For `O=C(CC1CCNCC1)Nc1nc2ccc(C(=O)c3ccccc3)cc2[nH]1` [Compound 113], the values for the inhibition at 3 µM on PfCDPK1 and on PfCDPK4 were 65% and 61%, respectively.
Regarding `O=C(CCCC1CCNCC1)Nc1nc2ccc(C(=O)c3ccccc3)cc2[nH]1` [Compound 115], the inhibition at 3 µM at PfCDPK1 is 71%; at PfCDPK4, 84%.
On the same counts, the results for `O=C(CCC1CCNCC1)Nc1nc2ccc(C(=O)c3ccccc3)cc2[nH]1` [Compound 117] are 71% and 74%.
For the compound `Cc1cc(-c2nn(CC3CCNCC3)c3ncnc(N)c23)ccc1-c1ccccc1` [Compound 118], the inhibition at 3 µM came out at 97% at PfCDPK1 and 81% on PfCDPK4.
On the same counts, the results for `Nc1ncnc2c1c(-c1ccc3cc(O)ccc3c1)nn2CC1CCNCC1` [Compound 119] are 102% and 101%.
As for `Nc1ncnc2c1c(-c1ccc3oc(-c4ccccc4)nc3c1)nn2CC1CCNCC1` [Compound 120], the inhibition at 3 µM on PfCDPK1 turned out to be 101%; at PfCDPK4, 90%.
Taken in the same sequence, the figures for `Cn1ncc2cc(-c3nn(CC4CCNCC4)c4ncnc(N)c34)ccc21` [Compound 121] were 93% and 93%.
On the same counts, the results for `Nc1ncnc2c1c(-c1ccc3nccnc3c1)nn2CC1CCNCC1` [Compound 122] are 97% and 32%.
On the same counts, the results for `CC(C)(C)n1ncc2c(N)ncnc21` [Compound 123] are 62% and 4%.
Turning to `CC(C)COc1ccc2cc(-c3nn(CC4CCN(C)CC4)c4ncnc(N)c34)ccc2c1` [Compound 124], the inhibition at 3 µM stood at 98% on PfCDPK1 and 93% on PfCDPK4.
With `Nc1ncnc2c1c(-c1ccc3ncccc3c1)nn2CC1CCNCC1` [Compound 125], the inhibition at 3 µM on PfCDPK1 is 89%; at PfCDPK4 it was 93%.
`O=C(NCCC1CCNCC1)Nc1nc2ccc(C(=O)c3ccccc3)cc2[nH]1` [Compound 126]: the results for the inhibition at 3 µM at PfCDPK1 and on PfCDPK4 were 76% and 65%, respectively.
On the same counts, the results for `O=C(NCCCCO)Nc1nc2ccc(C(=O)c3ccccc3)cc2[nH]1` [Compound 127] are 68% and 46%.
Taken in the same sequence, the figures for `NCCCCNC(=O)Nc1nc2ccc(C(=O)c3ccccc3)cc2[nH]1` [Compound 128] were 79% and 64%.
On the same counts, the results for `CC(C)(C)n1nc(Br)c2c(N)ncnc21` [Compound 129] are 79% and 9%.
`CC(C)COc1ccc2cc(-c3nn(C(C)(C)C)c4ncnc(N)c34)ccc2c1` [Compound 130]: the inhibition at 3 µM at PfCDPK1 is 95%; at PfCDPK4 it was 47%.
As to `CC(C)(C)n1nc(-c2ccc3oc(-c4ccccc4)nc3c2)c2c(N)ncnc21` [Compound 131], the results for the inhibition at 3 µM on PfCDPK1 and at PfCDPK4 were 100% and 38%, respectively.
As for `COc1ccc(-c2nn(C(C)(C)C)c3ncnc(N)c23)cc1C` [Compound 132], the inhibition at 3 µM at PfCDPK1 and at PfCDPK4 was 96% each time.
`Cc1cc(-c2nn(C(C)(C)C)c3ncnc(N)c23)ccc1-c1ccccc1` [Compound 133]: the inhibition at 3 µM at PfCDPK1 came out at 79%; at PfCDPK4 it was 26%.
On the same counts, the results for `Cc1cccc(-c2nn(C(C)(C)C)c3ncnc(N)c23)c1` [Compound 134] are 89% and 87%.
Taken in the same sequence, the figures for `COc1ccc2cc(-c3nn(C(C)(C)C)c4ncnc(N)c34)ccc2c1` [Compound 135] were 96% and 97%.
On the same counts, the results for `CC(C)(C)n1nc(-c2ccc(-c3ccccc3)cc2)c2c(N)ncnc21` [Compound 136] are 90% and 16%.
For the compound `CCOc1ccc2cc(-c3nn(C(C)(C)C)c4ncnc(N)c34)ccc2c1` [Compound 137], the inhibition at 3 µM at PfCDPK1 and on PfCDPK4 was 95% each time.
On to `Cn1ccc2cc(-c3nn(C(C)(C)C)c4ncnc(N)c34)ccc21` [Compound 139], for which the results for the inhibition at 3 µM on PfCDPK1 and on PfCDPK4 were 99% and 96%, respectively.
On the same counts, the results for `CC(C)(C)n1nc(-c2ccccc2)c2c(N)ncnc21` [Compound 140] are 98% and 90%.
Taken in the same sequence, the figures for `Cn1ncc2cc(-c3nn(C(C)(C)C)c4ncnc(N)c34)ccc21` [Compound 142] were 98% and 97%.
Taken in the same sequence, the figures for `CC(C)(C)n1nc(-c2ccc3ncccc3c2)c2c(N)ncnc21` [Compound 143] were 97% and 97%.
For the compound `COc1ccc(-c2nn(CC3CCNCC3)c3ncnc(N)c23)cc1C` [Compound 144], the inhibition at 3 µM at PfCDPK1 turned out to be 95%; at PfCDPK4, 94%.
On the same counts, the results for `Nc1ncnc2c1c(-c1ccccc1)nn2CC1CCNCC1` [Compound 145] are 93% and 63%.
Taken in the same sequence, the figures for `Nc1ncnc2c1c(-c1ccc3ccccc3c1)nn2CC1CCNCC1` [Compound 147, 3-(naphthalen-2-yl)-1-(piperidin-4-ylmethyl)-1H-pyrazolo[3,4-d]pyrimidin-4-amine] were 100% and 99%.
